The values below are quoted from earlier work in patent publication US20100055177A1, “MODIFIED RELEASE COMPOSITION OF LEVETIRACETAM AND PROCESS FOR THE PREPARATION THEREOF” (priority 2008, published 2010).

Regarding `CC[C@@H](C(N)=O)N1CCCC1=O` [levetiracetam, (−)-(S)-(alpha)-ethyl-2-oxo-1-pyrrolidine acetamide], the water solubility result is reported as “about 1.04 g/ml”.
